The record followed here is patent publication US20230339890A1, “AMINO ALCOHOL COMPOUNDS AND USES THEREOF” (Kineta, Inc., priority 2020, published 2023).

For the first assay, the system named is Erg11. Put plainly: HPLC analysis of lanosterol and ergosterol in wild-type yeast cultures. Type of assay: cell-based. Conditions: wild-type yeast treated for eight hours. How it is done: (§1) (FIG. 1A) Structure of the Erg11 inhibitor and anti-fungal, fluconazole. […] A 2-fold serial dilution of fluconazole was applied to TDP-43-expressing yeast for 24 hours prior to analysis. (FIG. 1C) Wild-type yeast cultures were treated with fluconazole for eight hours prior to HPLC analysis for lanosterol and ergosterol. Data are expressed as the area under the curve (AUC) normalized to cell mass based on optical density of cultures at 600 nm.
Fluconazole is an antifungal known to inhibit Erg11, the yeast lanosterol 14-alpha demethylase (FIG. 1B). […] CYP51A1 has also been known as lanosterol 14-alpha demethylase, which describes its function in removing the 14-alpha-methyl group from lanosterol to generate 4,4-dimethylcholesta-8(9), 14, 24-trien-3β-ol, which is a critical step in the cholesterol biosynthetic pathway.
Regarding `OC(Cn1cncn1)(Cn1cncn1)c1ccc(F)cc1F` [fluconazole], the “ergosterol (AUC normalized to cell mass)” value is “reduces ergosterol” and the “lanosterol (AUC normalized to cell mass)” value is “increase in the Erg11 substrate, lanosterol”.

A further assay relates to TDP-43-expressing yeast. The assay can be described thus: Yeast TDP-43 model viability (resazurin-reduction endpoint). The format is cell-based. The conditions noted are these: 2-fold serial dilution applied for 24 hours. Here is the method:
as §1
The toxic gain of function features of TDP-43 can be faithfully recapitulated in the simple model organism, budding yeast, where the protein also localizes to stress granules. […] The yeast model thus provides a robust cell-based screening platform for small molecules capable of ameliorating toxicity. To validate compounds from such phenotypic screens, it is imperative to test compounds in a mammalian neuronal context. In an effort to develop TDP-43-related mammalian models of neuron loss that occurs in ALS and FTD, primary cultures of rat cortical neurons were transfected with human wild type or Q331K mutant TDP-43. These cells were compared to cells which received an empty expression vector control. […] In the experiments described in this example, this model system is used to interrogate new therapeutic approaches to ameliorate TDP-43 toxicity.
Fluconazole is an antifungal known to inhibit Erg11, the yeast lanosterol 14-alpha demethylase (FIG. 1B). […]
(Alamar Blue is a resazurin reagent that responds to reducing activity.)
Consider `OC(Cn1cncn1)(Cn1cncn1)c1ccc(F)cc1F` [fluconazole], for which the “viability of TDP-43-expressing yeast” value was “rescues viability”.

Still in this assay, the particulars now being: 2-fold serial dilution applied for 24 hours, listed as Fluconazole.
Take `OC(Cn1cncn1)(Cn1cncn1)c1ccc(F)cc1F` [fluconazole]: the “viability of TDP-43-expressing yeast” value is “restored viability”.

For the next assay, the target named is Recombinant human CYP51A1 (lanosterol-14a-demethylase) (Homo sapiens (Human), UniProt Q16850). The assay can be described thus: Inhibition of CYP51A1, fluorescent substrate BOMCC. Conditions: recombinant human CYP51A1 coexpressed with CYP reductase in bacterial membranes, 8-point concentration-response, read-out: CYP51 IC50. The format is biochemical. An excerpt: Method: Recombinant human CYP51A1 (lanosterol-14a-demethylase) enzyme was coexpressed with CYP reductase in bacterial membranes and the fluorescent substrate BOMCC (a nonnatural substrate that causes increases in fluorescence upon CYP51A1-dependent demethylation) was used to obtain 8-point dose concentration-response curves for each compound.
Sequence of Recombinant human CYP51A1 (lanosterol-14a-demethylase) (Q16850 whole entry): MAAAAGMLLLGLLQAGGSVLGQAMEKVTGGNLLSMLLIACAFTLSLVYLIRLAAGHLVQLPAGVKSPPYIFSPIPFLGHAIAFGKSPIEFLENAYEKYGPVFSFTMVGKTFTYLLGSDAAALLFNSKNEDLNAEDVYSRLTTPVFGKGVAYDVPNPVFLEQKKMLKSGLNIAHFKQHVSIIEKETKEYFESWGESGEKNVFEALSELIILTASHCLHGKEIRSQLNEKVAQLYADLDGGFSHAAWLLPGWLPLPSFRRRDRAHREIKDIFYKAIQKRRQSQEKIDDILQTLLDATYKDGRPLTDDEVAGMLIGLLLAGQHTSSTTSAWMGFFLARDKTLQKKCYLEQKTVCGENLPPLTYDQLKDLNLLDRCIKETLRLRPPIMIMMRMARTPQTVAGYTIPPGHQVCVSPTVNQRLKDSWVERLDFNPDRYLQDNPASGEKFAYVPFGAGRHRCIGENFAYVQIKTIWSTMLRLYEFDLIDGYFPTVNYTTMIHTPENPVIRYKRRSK
As usually defined, the IC50 is the midpoint of a concentration-inhibition curve. For the compound `CCCN(C[C@@H](O)c1cccnc1)C(=O)N1Cc2cc(Cl)c(Br)cc2C1` [compound 135, 5-bromo-6-chloro-N-[(2S)-2-hydroxy-2-(3-pyridyl)ethyl]-N-propyl-isoindoline-2-carboxamide], the IC50 was at most 100 nM.

With `CCCN(C[C@@H](O)c1cccnc1)C(=O)Cc1ccc2scnc2c1` [compound 47, 2-(1,3-benzothiazol-5-yl)-N-[(2S)-2-hydroxy-2-(3-pyridyl)ethyl]-N-propyl-acetamide], the IC50 was in the range of 100 to 1000 nM.

Consider `O=C(Cc1ccc(OC(F)(F)F)cn1)N(CC1COC1)C[C@@H](O)c1cccnc1` [compound 66, N-[(2S)-2-hydroxy-2-(3-pyridyl)ethyl]-N-(oxetan-3-ylmethyl)-2-[5-(trifluoromethoxy)-2-pyridyl]acetamide], for which the IC50 lay within 100 to 1000 nM.

As for `CC(C)(C)OC(=O)N(CCc1ccc2ccccc2c1)CC(O)c1cccnc1` (centres unmarked) [compound 137, Tert-butyl N-[2-hydroxy-2-(3-pyridyl)ethyl]-N-[2-(2-naphthyl)ethyl]carba mate], the 50% inhibitory concentration (IC50) was at most 100 nM.

For the compound `CCCN(C[C@@H](O)c1cccnc1)C(=O)C1Cc2cc(C#N)c(C#N)cc2C1` [compound 133, 5,6-dicyano-N-[(2S)-2-hydroxy-2-(3-pyridyl)ethyl]-N-propyl-indane-2-carboxamide], the IC50 lay in the range of 100 to 1000 nM.

Take `O=C(Cc1ccc(C(F)(F)F)nc1)N(Cc1ccccc1)C[C@@H](O)c1cccnc1` [compound 64, (S)-N-benzyl-N-(2-hydroxy-2-(pyridin-3-yl)ethyl)-2-(6-(trifluoromethyl)pyridin-3-yl)acetamide]: the concentration for half-maximal inhibition (IC50) is at most 100 nM.

With `CCCN(CC(O)c1ccc(=O)n(C)c1)C(=O)Cc1ccc(Cl)c(Cl)c1` (centres unmarked) [compound 121, 2-(3,4-dichlorophenyl)-N-[2-hydroxy-2-(1-methyl-6-oxo-3-pyridyl)ethyl]-N-propyl-acetamide], the 50% inhibitory concentration (IC50) was above 1000 nM.

Regarding `CCCN(C[C@@H](O)c1cccnc1)C(=O)Cc1cnc(C(F)(F)F)nc1` [compound 124, N-[(2S)-2-hydroxy-2-(3-pyridyl)ethyl]-N-propyl-2-[2-(trifluoromethyl)pyrimidin-5-yl]acetamide], the IC50 was at most 100 nM.

In the case of `CCCN(C[C@@H](O)c1cccnc1)C(=O)Cc1ccc(C#N)c(F)c1` [compound 119, 2-(4-cyano-3-fluoro-phenyl)-N-[(2S)-2-hydroxy-2-(3-pyridyl)ethyl]-N-propyl-acetamide], the half-maximal inhibitory concentration (IC50) is at most 100 nM.

For `CCCN(C[C@@H](O)c1cccnc1)C(=O)Cc1ccc(OC)c(Cl)c1` [compound 12, 2-(3-chloro-4-methoxy-phenyl)-N-[(2S)-2-hydroxy-2-(3-pyridyl)ethyl]-N-propyl-acetamide], the IC50 is 100 to 1000 nM.

Take `Cc1ccncc1C(O)CN(CC1COC1)C(=O)Cc1ccc(C(F)(F)F)nc1` (centres unmarked) [compound 89, N-[2-hydroxy-2-(4-methyl-3-pyridyl)ethyl] -N-(oxetan-3-ylmethyl)-2-[6-(trifluoromethyl)-3-pyridyl]acetamide]: the 50% inhibitory concentration (IC50) was above 1000 nM.

As to `CCCN(C[C@H](O)c1cccnc1)C(=O)Cc1ccc(Cl)c(Cl)c1` [compound 6, 2-(3,4-dichlorophenyl)-N-[(2R)-2-hydroxy-2-(3-pyridyl)ethyl]-N-propyl-acetamide], the IC50 was at most 100 nM.

Consider `CCCN(CC(O)c1cncc(C(C)=O)c1)C(=O)Cc1ccc(C(F)(F)F)nc1` (centres unmarked) [compound 48, N-[2-(5-acetyl-3-pyridyl)-2-hydroxy-ethyl]-N-propyl-2-[6-(trifluoromethyl)-3-pyridyl]acetamide], for which the half-maximal inhibitory concentration (IC50) was above 1000 nM.

In the case of `CCCN(C[C@@H](O)c1cccnc1)C(=O)C1Cc2ccc(Cl)c(Cl)c2C1` (stereo partly drawn) [compound 120, 4,5-dichloro-N-[(2S)-2-hydroxy-2-(3-pyridyl)ethyl]-N-propyl-indane-2-carboxamide], the IC50 is at most 100 nM.

Turning to `O=C(Cc1ccc(C(F)(F)F)nc1)N(C[C@@H](O)c1cccnc1)C1CCC1` [compound 74, N-cyclobutyl-N-[(2S)-2-hydroxy-2-(3-pyridyl)ethyl]-2-[6-(trifluoromethyl)-3-pyridyl]acetamide], the IC50 was at most 100 nM.

On to `CC1(CN(C[C@@H](O)c2cccnc2)C(=O)Cc2ccc(C(F)(F)F)nc2)CC1` [compound 76, N-[(2S)-2-hydroxy-2-(3-pyridyl)ethyl]-N-[(1-methylcyclopropyl)methyl]-2-[6-(trifluoromethyl)-3-pyridyl]acetamide], for which the IC50 was at most 100 nM.

Regarding `CCCN(C[C@@H](O)c1cccnc1)C(=O)Cc1ccc(C#N)nc1` [compound 39, 2-(6-cyano-3-pyridyl)-N-[(2S)-2-hydroxy-2-(3-pyridyl)ethyl]-N-propyl-acetamide], the half-inhibitory concentration (IC50) was above 1000 nM.

Turning to `CCCN(C[C@H](O)c1cccnc1)C(=O)Cc1ccc2ccccc2c1` [compound 147, N-[(2R)-2-hydroxy-2-(3-pyridyl)ethyl]-2-(2-naphthyl)-N-propyl-acetamide], the half-maximal inhibitory concentration (IC50) was at most 100 nM.

For `CCCN(CC(O)c1cnccn1)C(=O)C1Cc2cc(Cl)c(Cl)cc2C1` (centres unmarked) [compound 129], the concentration for half-maximal inhibition (IC50) is 100 to 1000 nM.

With `CCCN(CC(O)c1cccnn1)C(=O)Cc1ccc(C#N)c(Cl)c1` (single isomer, unassigned) [compound 53, 2-(3-chloro-4-cyanophenyl)-N-(2-hydroxy-2-pyridazin-3-yl-ethyl)-N-propyl-acetamide], the IC50 was 100 to 1000 nM.

`CCCN(CC(O)c1cccnn1)C(=O)Cc1ccc(C(F)(F)F)nc1` (single isomer, unassigned) [compound 68, N-[2-hydroxy-2-pyridazin-3-yl-ethyl]-N-propyl-2-[6-(trifluoromethyl)-3-pyridyl]acetamide]: the IC50 was above 1000 nM.

Regarding `CCCN(CC(O)c1cccnc1)C(=O)Cc1ccc(F)c(F)c1` (centres unmarked) [compound 95, 2-(3,4-difluorophenyl)-N-(2-hydroxy-2-(pyridin-3-yl)ethyl)-N-propylacetamide], the half-inhibitory concentration (IC50) was in the range of 100 to 1000 nM.

As for `CCCN(CC(O)c1cncnc1)C(=O)Cc1ccc(Cl)c(Cl)c1` (centres unmarked) [compound 13, 2-(3,4-dichlorophenyl)-N-(2-hydroxy-2-pyrimidin-5-yl-ethyl)-N-propyl-acetamide], the 50% inhibitory concentration (IC50) was above 1000 nM.

As to `CCCN(C[C@@H](O)c1cccnc1)C(=O)Cc1ccc(C(F)(F)F)nn1` [compound 38, N-[(2S)-2-hydroxy-2-(3-pyridyl)ethyl]-N-propyl-2-[6-(trifluoromethyl)pyridazin-3-yl]acetamide], the 50% inhibitory concentration (IC50) lay within 100 to 1000 nM.

For `CCCN(C[C@@H](O)c1cccnc1)C(=O)Cc1ccc(C#N)c(Cl)c1` [compound 100, 2-(3-chloro-4-cyano-phenyl)-N-[(2S)-2-hydroxy-2-(3-pyridyl)ethyl]-N-propyl-acetamide], the IC50 is at most 100 nM.

Consider `CC(C)(C)OC(=O)NCCCCCN(C[C@@H](O)c1cccnc1)C(=O)Cc1ccc(C(F)(F)F)nc1` [compound 141, tert-butyl N-[5-[[(2S)-2-hydroxy-2-(3-pyridyl)ethyl]-[2-[6-(trifluoromethyl)-3-pyridyl]acetyl]amino]pentyl]carbamate], for which the concentration for half-maximal inhibition (IC50) is at most 100 nM.

As for `CCCN(C[C@@H](O)c1cccnc1)C(=O)Cc1ccc(OC(F)(F)F)cn1` [compound 45, N-[(2S)-2-hydroxy-2-(3-pyridyl)ethyl]-N-propyl-2-[5-(trifluoromethoxy)-2-pyridyl]acetamide], the IC50 was at most 100 nM.

Take `O=C(Cc1ccc(C(F)(F)F)nc1)N(CC(O)c1cccnn1)C1CCC1` (single isomer, unassigned) [compound 62, N-cyclobutyl-N-(2-hydroxy-2-pyridazin-3-yl-ethyl)-2-[6-(trifluoromethyl)-3-pyridyl]acetamide]: the IC50 was above 1000 nM.

In the case of `CCC(=O)N(C[C@H](O)c1cccnc1)C1Cc2cc(Cl)c(Cl)cc2C1` [compound 23, N-(5,6-dichloroindan-2-yl)-N-[(2R)-2-hydroxy-2-(3-pyridyl)ethyl]propanamide], the IC50 was at most 100 nM.

For the compound `CCC(=O)N(CC1Cc2cc(Cl)c(Cl)cc2C1)C[C@@H](O)c1cccnc1` [compound 34, N-[(5,6-dichloroindan-2-yl)methyl]-N-[(2S)-2-hydroxy-2-(3-pyridyl)ethyl]propanamide], the IC50 is 100 to 1000 nM.

`O=C(Cc1ccc(C(F)(F)F)nc1)N(CC1COC1)C[C@@H](O)c1cccnc1` [compound 73, N-[(2S)-2-hydroxy-2-(3-pyridyl)ethyl]-N-(oxetan-3-ylmethyl)-2-[6-(trifluoromethyl)-3-pyridyl]acetamide]: the IC50 fell in the range of 100 to 1000 nM.
